This data set in a line: Fluorophore detection in interstitial fluid (ISF) of rats after IV or PO dosing, subcutaneous optical PMMA fiber and reader device. The conditions noted are these: rat, in vivo. The source says:
Study Protocol: The purpose of the study was to investigate in an acute or semi-chronic rat trial set-up if fluorophores are detectable in the ISF (InterStitial Fluid) when injected IV or given to the rat Per Oral (PO). Four rat subjects (Rat 001, Rat 002, Rat 003, and Rat 004) were included in the study. The procedure of the study was as follows: Rat subjects were Sprague Dawley rats, male, Diet Induced Obese (DIO). For each rat, the rat was anaesthesized, shaved and cleaned on the back for PMMA optical fiber insertion. A tail venous catheter was placed and two 250 um optical PMMA fibers were placed in the subcutaneous fat tissue of the DIO rat. The base and tape of the sensor unit was sutured to the skin.
For Rats 001 and 002, a reader device suitable for indocyanine green dye detection was mounted. [ . . . ] Rat 002 died during oral dosing while under anesthesia due to lack of swallowing reflex.
For Rats 003 and 004 reader devices suitable for Alexa Fluor 594™ (AF594) detection were mounted. Recording began using RF data transfer (GST protocol, MDT Diabetes). A first IV injection of 0.01 mg AF594 was injected (1 mL into tail vein). Rise and decay of fluorescence was observed before a second injection of 1 mL of 0.01 mg AF594 into the tail vein. Anesthesia then was removed and the rat was placed into a cage. […]

As for `CC1(C)C(/C=C/C=C/C=C/C=C2\N(CCCCS(=O)(=O)O)c3ccc4ccccc4c3C2(C)C)=[N+](CCCCS(=O)(=O)[O-])c2ccc3ccccc3c21` [Indo Cyanine Green], the “clearance from the ISF after IV dosing” value is on record as “relatively fast clearance” and the “signal in ISF after IV dosing” value is given as “distinct signals”.

These data come from patent US12171554B2, “Marker monitoring via a medical device” (Medtronic, Inc., priority 2017, dated 2024).
